Columns and labels:
[1] = target: GDP-bound NRAS wild-type protein (Homo sapiens, UniProt P01111); experiment: Binding to NRAS by surface plasmon resonance (SPR), Single Cycle Kinetics; details: KD ratio NRAS/KRAS, SPR
[2] = target: GDP-bound HRAS wild-type protein (Homo sapiens, UniProt P01112); experiment: Binding to HRAS by surface plasmon resonance (SPR), Single Cycle Kinetics; details: KD ratio HRAS/KRAS, SPR
Sequence of GDP-bound HRAS wild-type protein (P01112 whole entry): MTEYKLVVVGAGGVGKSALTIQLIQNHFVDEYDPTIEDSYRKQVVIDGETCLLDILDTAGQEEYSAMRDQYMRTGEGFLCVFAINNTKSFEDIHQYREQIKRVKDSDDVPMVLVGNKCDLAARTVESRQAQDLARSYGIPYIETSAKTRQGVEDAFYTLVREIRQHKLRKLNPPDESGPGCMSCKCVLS

Sequence of GDP-bound NRAS wild-type protein (P01111 whole entry): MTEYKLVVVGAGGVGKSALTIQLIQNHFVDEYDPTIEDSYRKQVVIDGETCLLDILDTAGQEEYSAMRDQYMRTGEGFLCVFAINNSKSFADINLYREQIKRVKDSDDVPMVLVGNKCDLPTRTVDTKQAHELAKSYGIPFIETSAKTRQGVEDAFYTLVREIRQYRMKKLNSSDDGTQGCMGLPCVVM

Compound	NRAS/KRAS (ratio of KD value with respect to GDP-bound NRAS wild-type protein to KD value with respect to KRAS) [1]	HRAS/KRAS (ratio of KD value with respect to GDP-bound HRAS wild-type protein to KD value with respect to KRAS) [2]
CC[C@H](C)[C@@H]1NC(=O)[C@H](CC(C)C)N(C)C(=O)C[C@@H](C(=O)N2CCOCC2)N(C)C(=O)[C@H](C2CCCC2)N(C)C(=O)C2(CCC2)NC(=O)[C@@H]2CCCN2C(=O)[C@H](CCc2cc(F)c(C(F)(F)F)c(F)c2)NC(=O)CN(C)C(=O)[C@H](Cc2ccc(C(F)(F)F)cc2)N2CCCC[C@@H](C2=O)N(C)C(=O)CN(C)C1=O [PP0560]	B (a compound having 3 or more and less than 10 is denoted as B)	B (a compound having 3 or more and less than 10 is denoted as B)
CC[C@H](C)[C@@H]1NC(=O)[C@H](CC(C)C)N(C)C(=O)C[C@@H](C(=O)N2CCOCC2)N(C)C(=O)[C@H](C2CCCC2)N(C)C(=O)C2(CCCCC2)NC(=O)[C@@H]2CCCN2C(=O)[C@H](CCc2cc(F)c(C(F)(F)F)c(F)c2)NC(=O)CN(C)C(=O)[C@H](Cc2ccc(C(F)(F)F)cc2)N2CCCC[C@@H](C2=O)N(C)C(=O)CN(C)C1=O [PP0561]	B (a compound having 3 or more and less than 10 is denoted as B)	B (a compound having 3 or more and less than 10 is denoted as B)
CC[C@H](C)[C@@H]1NC(=O)[C@H](CC(C)C)N(C)C(=O)C[C@@H](C(=O)N2CCOCC2)N(C)C(=O)[C@H](C2CCCC2)N(C)C(=O)C2(CC(F)(F)C2)NC(=O)[C@@H]2CCCN2C(=O)[C@H](CCc2cc(F)c(C(F)(F)F)c(F)c2)NC(=O)CN(C)C(=O)[C@H](Cc2ccc(C(F)(F)F)cc2)N2CCCC[C@@H](C2=O)N(C)C(=O)CN(C)C1=O [PP0562]	B (a compound having 3 or more and less than 10 is denoted as B)	B (a compound having 3 or more and less than 10 is denoted as B)
CC[C@H](C)[C@@H]1NC(=O)[C@H](CC(C)C)N(C)C(=O)C[C@@H](C(=O)N2CCOCC2)N(C)C(=O)[C@H](C2CCCC2)N(C)C(=O)C2(COC2)NC(=O)[C@@H]2CCCN2C(=O)[C@H](CCc2cc(F)c(C(F)(F)F)c(F)c2)NC(=O)CN(C)C(=O)[C@H](Cc2ccc(C(F)(F)F)cc2)N2CCCC[C@@H](C2=O)N(C)C(=O)CN(C)C1=O [PP0563]	B (a compound having 3 or more and less than 10 is denoted as B)	B (a compound having 3 or more and less than 10 is denoted as B)
CC[C@H](C)[C@@H]1NC(=O)[C@H](CC(C)C)N(C)C(=O)C[C@@H](C(=O)N2CCOCC2)N(C)C(=O)[C@H](C2CCCC2)N(C)C(=O)C2(CCOCC2)NC(=O)[C@@H]2CCCN2C(=O)[C@H](CCc2cc(F)c(C(F)(F)F)c(F)c2)NC(=O)CN(C)C(=O)[C@H](Cc2ccc(C(F)(F)F)cc2)N2CCCC[C@@H](C2=O)N(C)C(=O)CN(C)C1=O [PP0564]	B (a compound having 3 or more and less than 10 is denoted as B)	B (a compound having 3 or more and less than 10 is denoted as B)
CC[C@H](C)[C@@H]1NC(=O)[C@H](CC(C)C)N(C)C(=O)C[C@@H](C(=O)N2CCOCC2)N(C)C(=O)[C@H](C2CCCC2)N(C)C(=O)C(C)(C)NC(=O)[C@@H]2CCCN2C(=O)[C@H](CCc2cc(F)c(C(F)(F)F)c(F)c2)NC(=O)CN(C)C(=O)[C@H](Cc2ccc(C(F)(F)F)cc2)N2CCCC[C@@H](C2=O)N(C)C(=O)CN(C)C1=O [PP0565]	C (A compound having a KD ratio of 0.1 or more and less than 3 is denoted as C)	B (a compound having 3 or more and less than 10 is denoted as B)
